pIC50: −log10 of the molar value.
Tests used:
YUFURL melanoma cells = assay: CellTiter-Glo Luminescent Cell Viability Assay; type: cell-based; settings: Homo sapiens, NRAS G12D, 72 hrs
Experimental: (§1) The melanoma cells were grown in OptiMEM (Invitrogen, Carlsbad, CA) supplemented with 5% fetal calf serum and antibiotics. The normal human melanocytes (NBMEL) were grown in medium supplemented with bFGF, IBMX and dbcAMP [32]. Most of the Yale melanoma cell lines were characterized by next-generation sequencing (Supplementary Table 2).
(§2) Cell proliferation was measured with the CellTiter-Glo® Luminescent Cell Viability Assay (Promega Corporation, Madison, WI). Melanoma cells were seeded in 96-well plates in triplicate or quadruplet wells, with increasing concentrations of kinase inhibitors for 72 hrs. The rate of proliferation was also tested after knockdown of different SRC-family kinases (SFK) with hairpin lentivirus shRNA as indicated. […] The statistical significance of synergism of response to drug combinations was evaluated by following Chou and Talalay algorithm. See also details in Supplementary Material.

YUMAC melanoma cells = assay: CellTiter-Glo Luminescent Cell Viability Assay; type: cell-based; settings: Homo sapiens, BRAF V600K, 72 hrs
Experimental: as §1, §2

YUGEN8 melanoma cells = assay: CellTiter-Glo Luminescent Cell Viability Assay; type: cell-based; settings: Homo sapiens, YUGEN8, BRAF V600E, 72 hrs
Experimental: as §1, §2

YUCHIME melanoma cells = assay: CellTiter-Glo Luminescent Cell Viability Assay; type: cell-based; settings: Homo sapiens, BRAF V600K/M, 72 hrs
Experimental: as §1, §2

YUHEF melanoma cells = assay: CellTiter-Glo Luminescent Cell Viability Assay; type: cell-based; settings: Homo sapiens, WT/WT, 72 hrs
Experimental: as §1, §2

YUPEPO melanoma cells = assay: CellTiter-Glo Luminescent Cell Viability Assay; type: cell-based; settings: Homo sapiens, WT/WT, GNA11 Q209L, 72 hrs
Experimental: as §1, §2

SK-MEL-23 melanoma cells = assay: CellTiter-Glo Luminescent Cell Viability Assay; type: cell-based; settings: Homo sapiens, SK-MEL-23, WT/WT, 72 hrs
Experimental: as §1, §2

YUCRATE melanoma cells = assay: CellTiter-Glo Luminescent Cell Viability Assay; type: cell-based; settings: Homo sapiens, BRAF G469A, 72 hrs
Experimental: as §1, §2

YUTOGS melanoma cells = assay: CellTiter-Glo Luminescent Cell Viability Assay; type: cell-based; settings: Homo sapiens, WT/WT, 72 hrs
Experimental: as §1, §2

[1] = tested on: panel of 36 recombinant kinases; assay: Radioisotope filter assay, panel of recombinant kinases (summary); type: biochemical; settings: SRC-family kinases YES1, BLK, LCK, FGR, HCK and FYN; read-out: IC50, range over kinases
Experimental: The effect of SAB298 on a panel of 36 recombinant kinases, was screed with the radioisotope filter binding assay employing 10 concentrations of the compound with 10 µM ATP (Reaction Biology Corporation, Malvern, PA). In addition, we tested the endogenous kinome response to SAB298 (0.05 µM, 0.5 µM and 5 µM) in lysates from two melanoma cell lines (YUSIV and YUSIK) employing the KiNativ® platform (ActivX Biosciences Inc., La Jolla, CA). KiNativ® is a robust, high performance mass spectrometry (LC-MS^2) assay that uses biotinylated probes to measure relevant changes in the affinity to the ATP-binding sites of 205 native kinases as a function of cellular context. We also validated SAB298 effect on the activity of SRC-family kinases by probing for phosphorylated Y416, the marker of activated SFKs, with anti-IEDNEpYTAR antibodies (also known as Y419, #2101, Cell Signaling Technology, Beverly, MA). In some cases the cells were incubated overnight with 20 µM proteasome inhibitor MG-132 (CAS 133407-82-6, Millipore Sigma, Burlington, MA) to rescue degradation.
Supplemntary Table 3: Radioisotope filter activity assay Tests for SAB298 target protein
*These are results from 10 point dose response test employed with 10 µM ATP.
Supplementary Table 4: Lentiviral vectors MISSION pLKO.1 puromycin bearing SFK shRNA used to test the effect of
specific SFK downregulation on cell proliferation […]

pY467/199 PIK3R1/3 = assay: Western blot, phospho-Y467/199 PIK3R1/3; type: cell-based, human; settings: melanoma cell lines; 0.5 µM, 5 hrs
Experimental: (§3) We used standard techniques to identify changes in intracellular signaling in response to various treatments. Briefly, melanoma cells were incubated with test compounds, using DMSO as a control, collected by scraping on ice, and lysed in RIPA buffer supplemented with protease and phosphatase inhibitors (MA #78428, and #78425, respectively, Thermo Fisher Scientific, Waltham, MA). Protein concentrations were measured with the BioRad kit (Bio-Rad Laboratories, Hercules, CA), SDS sample buffer was added, extracts were heated at 95°C, sonicated and centrifuged. Cell extracts (20 µg/lane) were fractionated in 3%–8% or 4–12 % tris-acetate gel (NP0006, NuPAGE Life Technologies). […]

MITF = assay: Western blot, MITF levels; type: cell-based, human; settings: melanoma cell lines, SAB298 0.5 µM, UM-164 1 µM, 6 hrs, SCH772984 0.5 µM
Experimental: We used standard techniques to identify changes in intracellular signaling in response to various treatments. Briefly, melanoma cells were incubated with test compounds, using DMSO as a control, collected by scraping on ice, and lysed in RIPA buffer supplemented with protease and phosphatase inhibitors (MA #78428, and #78425, respectively, Thermo Fisher Scientific, Waltham, MA). Protein concentrations were measured with the BioRad kit (Bio-Rad Laboratories, Hercules, CA), SDS sample buffer was added, extracts were heated at 95°C, sonicated and centrifuged. Cell extracts (20 µg/lane) were fractionated in 3%–8% or 4–12 % tris-acetate gel (NP0006, NuPAGE Life Technologies). We probed with the following primary antibodies: phospho-SRC Tyr416 (CST #2101S), pSRC Tyr527 (#2105), SRC (#2108), pPI3K p85 Y458/p55 Y199 (#4228), LYN (C13F9, #2796), FYN (#4023), phospho-MEK1/2 pSer217/221 (#9121), MEK1/2, phospho-ERK2 pThr202/Tyr204 (#9101), ERK1/2 (#9107), phospho-p38 kinase T180/Y182 (#9216), p38 kinase (#9212), PP2A (#2259), pSHP2 Y542 (#3751), SHP2 (D50F2, #3397), ERBB2 (D8F12 XP(R), #4290), phospho-ERBB2 Y1196 (D66B7 #6942), MYC (D84C12, #5605); GAPDH (14C10, #2118), all from Cell Signaling Technology, Beverly, MA; phospho-PP2A Y307 (AF3989), and MITF (clone D5, #AF5769) from R&D Systems, Inc., Minneapolis, MN; p27KIP1 (#10241) and YES (#610375) from BD Biosciences, San Jose, CA; Cyclin D1 (#04-221) and β-actin (mouse mAb A5316) from MilliporeSigma, St. Louis, MO; PI3K Antibody (p85 alpha, NSJ R30480) from Bioreagents, 9921 Carmel Mountain Rd #352, San Diego, CA. All antibodies were used at the concentrations recommended by the manufacturers.

phospho-PP2A Y307 = assay: Western blot, inactivated PP2A; type: cell-based, human; settings: YUSIK and YUSIV melanoma cells
Experimental: as §3

## Nc1ncnc2c1c(-c1ccc(Oc3ccccc3)cc1)nn2C[C@@H]1SSC[C@@H]1O [SAB298, (3S, 4S)-3-((4-amino-3-(4-phenoxyphenyl)-1H-pyrazolo[3,4-d]pyrimidin-1-yl)methyl)-1,2-dithiolan-4-ol]
YUFURL melanoma cells
  pIC50: 6.43
YUMAC melanoma cells
  pIC50: 6.05
YUGEN8 melanoma cells
  pIC50: 6.94
YUCHIME melanoma cells
  pIC50: 5.61
YUHEF melanoma cells
  pIC50: 6.59
YUPEPO melanoma cells
  pIC50: 6.58
SK-MEL-23 melanoma cells
  pIC50: 6.79
YUCRATE melanoma cells
  pIC50: 6.55
YUTOGS melanoma cells
  pIC50: 6.46
[1]
  pIC50: 7.66 to 9.15
pY467/199 PIK3R1/3
  phospho-Y467/199 PIK3R1/3 level: suppressed PI3K
MITF
  MITF levels: suppressed MITF levels in four out of seven melanoma cell lines
phospho-PP2A Y307
  inactivated PP2A (phospho-PP2A Y307) level: increase in the levels of inactivated PP2A

— PMC6481345, “A novel anti-melanoma SRC-family kinase inhibitor” (Oncotarget, 2019)
